The target of the test is T1, human S1P1 receptor (Homo sapiens, UniProt P21453).
T1 construct: expressed in transfected cells; membranes were used
T1 sequence (P21453 whole entry): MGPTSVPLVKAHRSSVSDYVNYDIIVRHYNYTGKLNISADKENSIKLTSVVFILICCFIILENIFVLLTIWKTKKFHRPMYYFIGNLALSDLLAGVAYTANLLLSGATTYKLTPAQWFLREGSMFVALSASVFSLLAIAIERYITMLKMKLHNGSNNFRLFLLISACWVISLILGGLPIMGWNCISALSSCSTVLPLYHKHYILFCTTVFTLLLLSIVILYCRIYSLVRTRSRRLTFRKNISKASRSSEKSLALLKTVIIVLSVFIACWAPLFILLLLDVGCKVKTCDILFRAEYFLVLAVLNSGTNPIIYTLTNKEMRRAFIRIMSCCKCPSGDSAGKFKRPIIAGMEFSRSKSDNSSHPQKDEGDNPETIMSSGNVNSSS
As to the kind of experiment: GTP γ35S binding assay for S1P1 activity. The format is biochemical. The conditions noted are these: activity potency from GTP γ35S binding; membrane protein from cells stably expressing the S1P1 receptor; 30 min at 25° C. The procedure:
Compounds were synthesized and tested for S1P1 activity using the GTP γ^35S binding assay. These compounds may be assessed for their ability to activate or block activation of the human S1P1 receptor in cells stably expressing the S1P1 receptor.
GTP γ^35S binding was measured in the medium containing (mM) HEPES 25, pH 7.4, MgCl2 10, NaCl 100, dithitothreitol 0.5, digitonin 0.003%, 0.2 nM GTP γ^35S, and 5 μg membrane protein in a volume of 150 μl. Test compounds were included in the concentration range from 0.08 to 5,000 nM unless indicated otherwise. Membranes were incubated with 100 μM 5′-adenylylimmidodiphosphate for 30 min, and subsequently with 10 μM GDP for 10 min on ice. Drug solutions and membrane were mixed, and then reactions were initiated by adding GTP γ^35S and continued for 30 min at 25° C. Reaction mixtures were filtered over Whatman GF/B filters under vacuum, and washed three times with 3 mL of ice-cold buffer (HEPES 25, pH7.4, MgCl2 10 and NaCl 100). Filters were dried and mixed with scintillant, and counted for ^35S activity using a β-counter. Agonist-induced GTP γ^35S binding was obtained by subtracting that in the absence of agonist. Binding data were analyzed using a non-linear regression method. In case of antagonist assay, the reaction mixture contained 10 nM S1P in the presence of test antagonist at concentrations ranging from 0.08 to 5000 nM.
A general note: GTPγS resists hydrolysis and so accumulates on activated G proteins.
Take `Cc1ccc(CC(c2cccc(F)c2)c2nc(-c3ccc(CNCCCP(=O)(O)O)cc3)no2)cc1C` (stereo not shown) [Compound 4, {3-[(4-{5-[2-(3,4-dimethylphenyl)-1-(3-fluorophenyl)ethyl]-1,2,4-oxadiazol-3-yl}benzyl)amino]propyl}phosphonic acid]: a half-maximal response (EC50) required 0.00404 µM.

In the case of `Cc1ccc(CC(c2ccc(Cl)cc2)c2nc(-c3ccc(CCC(=O)O)cc3C)no2)cc1C` (stereo not shown) [Compound 7, 3-(4-{5-[1-(4-chlorophenyl)-2-(3,4-dimethylphenyl)ethyl]-1,2,4-oxadiazol-3-yl}-3-methylphenyl)propanoic acid], a half-maximal effect (EC50) was put at 0.0893 µM.

Take `Cc1cccc(CC(c2cccc(Cl)c2)c2nc(-c3ccc(CCC(=O)O)cc3C)no2)c1` (stereo not shown) [Compound 8, 3-(4-{5-[1-(3-chlorophenyl)-2-(3-methylphenyl)ethyl]-1,2,4-oxadiazol-3-yl}-3-methylphenyl)propanoic acid]: a half-maximal response (EC50) required 0.0171 µM.

`Cc1cc(C)cc(C(Cc2ccc(C)c(C)c2)c2nc(-c3ccc(CNCCC(=O)O)cc3)no2)c1` (stereo not shown) [Compound 13, 3-[(4-{5-[2-(3,4-dimethylphenyl)-1-(3,5-dimethylphenyl)ethyl]-1,2,4-oxadiazol-3-yl}benzyl)amino]propanoic acid] showed an EC50 of 0.535 µM.

In turn, `Cc1ccc(CC(c2cccc(Cl)c2)c2nc(-c3ccc(CNCCCP(=O)(O)O)cc3)no2)cc1C` (stereo not shown) [Compound 2, {3-[(4-{5-[1-(3-chlorophenyl)-2-(3,4-dimethylphenyl)ethyl]-1,2,4-oxadiazol-3-yl}benzyl)amino]propyl}phosphonic acid] showed an EC50 of 0.00377 µM.

The compound `Cc1ccc(CC(c2cccc(Cl)c2)c2nc(-c3ccc(CCC(=O)O)cc3C)no2)cc1C` (stereo not shown) [Compound 6, 3-(4-{5-[1-(3-chlorophenyl)-2-(3,4-dimethylphenyl)ethyl]-1,2,4-oxadiazol-3-yl}-3-methylphenyl)propanoic acid] showed an EC50 of 1.06 µM.

In the case of `Cc1ccc(CC(c2cccc(C(F)(F)F)c2)c2nc(-c3ccc(CNCCC(=O)O)cc3)no2)cc1C` (stereo not shown) [Compound 12, 3-{[4-(5-{2-(3,4-dimethylphenyl)-1-[3-(trifluoromethyl)phenyl]ethyl}-1,2,4-oxadiazol-3-yl)benzyl]amino}propanoic acid], the EC50 is 0.336 µM.

`Cc1ccc(CC(c2cccc(F)c2)c2nc(-c3ccc(CNCCC(=O)O)cc3)no2)cc1C` (stereo not shown) [Compound 3, 3-[(4-{5-[2-(3,4-dimethylphenyl)-1-(3-fluorophenyl)ethyl]-1,2,4-oxadiazol-3-yl}benzyl)amino]propanoic acid] had an EC50 of 0.598 µM.

As for `Cc1ccc(CC(c2cccc(Cl)c2)c2nc(-c3ccc(CNCCC(=O)O)cc3)no2)cc1C` (stereo not shown) [Compound 1, 3-[(4-{5-[1-(3-chlorophenyl)-2-(3,4-dimethylphenyl)ethyl]-1,2,4-oxadiazol-3-yl}benzyl)amino]propanoic acid], the EC50 was found to be 0.312 µM.

As to `Cc1ccc(NC(c2cccc(Cl)c2)c2nc(-c3ccc(CNCCC(=O)O)cc3)no2)cc1C` (stereo not shown) [3-{[4-(5-{(3-chlorophenyl)[(3,4-dimethylphenyl)amino]methyl}-1,2,4-oxadiazol-3-yl)benzyl]amino}propanoic acid], the EC50 was found to be 0.0015 µM.

Turning to `Cc1ccc(CC(c2cccc(Cl)c2)c2nc(-c3ccc(C(=O)NCCC(=O)O)cc3)no2)cc1C` (stereo not shown) [Compound 9, 3-[(4-{5-[1-(3-chlorophenyl)-2-(3,4-dimethylphenyl)ethyl]-1,2,4-oxadiazol-3-yl}benzoyl)amino]propanoic acid], the EC50 turned out to be 0.911 µM.

`Cc1ccc(CC(c2cc(F)cc(F)c2)c2nc(-c3ccc(CNCCCP(=O)(O)O)cc3)no2)cc1C` (stereo not shown) [Compound 11, {3-[(4-{5-[1-(3,5-difluorophenyl)-2-(3,4-dimethylphenyl)ethyl]-1,2,4-oxadiazol-3-yl}benzyl)amino]propyl}phosphonic acid]: the response was half-maximal at 0.00527 µM (EC50).

In turn, `Cc1ccc(CC(c2cc(F)cc(F)c2)c2nc(-c3ccc(CNCCC(=O)O)cc3)no2)cc1C` (stereo not shown) [Compound 10, 3-[(4-{5-[1-(3,5-difluorophenyl)-2-(3,4-dimethylphenyl)ethyl]-1,2,4-oxadiazol-3-yl}benzyl)amino]propanoic acid] displayed an EC50 of 1.1 µM.

The term EC50 denotes the midpoint of the concentration-response curve.

Source of the values: patent US8497254B2, “Oxadiazole derivatives as sphingosine 1-phosphate (S1P) receptor modulators” (Allergan, Inc., priority 2010, dated 2013).
